These are literature values, as cited in US10650914B2, “Fresh water acute criteria prediction method based on quantitative structure-activity relationship for metals” (Chinese Research Academy of Environmental Sciences, priority 2015, dated 2020).

Each structure is given as a SMILES string.

One series relates to Daphnia magna. The note with it: for Endpoint Index: fatality rate, 48 hours, 13° C., pH 7.6, total hardness 240 mg/L; for Observed value (log-EC50): training set of leave-one-out internal validation.
A further series concerns Carp. The note with it: training set.

With `[Pb]` [Lead], in the series with Daphnia magna, the “Endpoint Index” value is 8.69 and the “Observed value (log-EC50)” value is 1.6231.
Consider `[Cr]` [Chromium], for which, in the series with Carp, the “Observed value (log-LC50)” value was 2.439.
For `[Cd]` [Cadmium], the “Observed value (log-LC50)” value in the series on Carp is 0.331.
On to `[Ag]` [Silver], for which, in the series on Daphnia magna, the “Endpoint Index” value is given as 0.014 and the “Observed value (log-EC50)” value is −0.8873.
Take `[Ni]` [Nickel]: in the series with Daphnia magna, the “Endpoint Index” value is 5.7 and the “Observed value (log-EC50)” value was 1.9850. The “Observed value (log-LC50)” value in the series with Carp is given as 2.246.
Regarding `[Zn]` [Zinc], in the series with Daphnia magna, the “Endpoint Index” value is reported as 0.13 and the “Observed value (log-EC50)” value is on record as 0.3010. The “Observed value (log-LC50)” value in the series on Carp was 2.079.
`[Cu]` [Copper]: in the series with Daphnia magna, the “Endpoint Index” value was 0.014 and the “Observed value (log-EC50)” value is reported as −0.6601. The “Observed value (log-LC50)” value with Carp is 1.097.
Turning to `[Fe]` [Iron], in the series with Daphnia magna, the “Endpoint Index” value is 2.92 and the “Observed value (log-EC50)” value is recorded as 1.7172.
